Patent US6319951A, “Use of 3-amino-4-hydroxybenzoic acid for the treatment of retroviral infections” (priority 1996, dated 2001)
Converted amounts (≈) assume the structure as drawn. “And” between values parts separate entries of the source, which are not always exact repeats. Equal entries are not always repeated. “Also recorded” adds a separate entry of the source. Where two headings read alike, the source gives them in different places.

Assays:
[1] = test system: HIV; conditions: in presence of normal serum iron; cited from earlier work
[2] = test system: HIV; conditions: reported for AZT; cited from earlier work
[3] = test system: HIV; test: inactivation of HIV cultivated in human lymphocytes (minimum inhibitory concentration); assay type: cell-based
[4] = test system: human lymphocytes; test: adverse effect on human lymphocytes in HIV culture; assay type: cell-based; conditions: at minimum concentration of 0.5 mg/l
[5] = Therapeutic Index determination
Description: The Therapeutic Index of 3-amino-4-hydroxybenzoic acid has been determined. International pharmacological principles demand that for human safety the Therapeutic Index of any drug to be used for human treatment should be greater than a unit, i.e. 1. If the Index is greater than 1, patients can take the drug without medical supervision and without experiencing adverse effects. There are, however, cases where therapeutic indices are less than 1 where the benefits outweigh the risks. This holds in the administration of anti-cancer drugs which mandate the availability of competent medical supervision. The reason behind this is that the drugs are supposed to destroy cancerous human cells. The difference between normal human cells and cancerous human cells is, as expected, minimal. It is expected that the difference between HIV and normal human cells would be colossal.
Therapeutic Index for 3-amino-4-hydroxybenzoic acid is: [formula]
The index for 3-amino-4-hydroxybenzoic acid is 40,000 which is good mathematical proof to back the safety of 3-amino-4-hydroxybenzoic acid as a drug to treat HIV.

[6] = test system: Herpes simplex; test: antimicrobial activity, Herpes simplex
[7] = test system: HIV; test: antimicrobial activity, HIV
[8] = test system: Neisseria gonorrhoeae; test: antimicrobial activity, Neisseria gonorrhoeae
[9] = test system: Treponema pallidum; test: antimicrobial activity, Treponema pallidum
[10] = test system: Escherchia coli; test: antimicrobial activity, Escherichia coli
[11] = test system: Candida albicans; test: antimicrobial activity, fungi, Candida albicans
[12] = test system: Trichomona vapinalis; test: antimicrobial activity, protozoan Trichomonas
[13] = test system: HIV; test: dipping HIV into aqueous 3-amino-4-hydroxybenzoic acid; conditions: aqueous solution, 30 seconds
Description: This duration is too short to be an inhibition of protein synthesis. It could only be an irreversible binding of the viral coat at gp120, gp160 or gp41 thereby making the virus fail to attach itself to the CD4 surface markers of target cells. […] It may also inactivate the lytic enzyme essential for HIV entry into the host cell as it does for hyaluronidase.

[14] = test system: gonorrhoeae; test: patient with gonorrhoea treated orally; assay type: in vivo, human; conditions: 1.6 g orally
Method: (§1) When a patient, with a frankly discharging gonorrhoeae was given 1.6 g of 3-amino-4-hydroxybenzoic acid orally, the discharge ceased in 12 hours but recurred in the 24th hour after treatment.

[15] = absorption and excretion inferred from oral treatment of gonorrhoea patient; assay type: in vivo, human; conditions: 1.6 g
Method: as §1

[16] = safety study on chicken; assay type: in vivo; conditions: oral, 9 days, up to 400.6 mg/kg
Description: A chicken of 500 g was used and 3-amino-4-hydroxybenzoic acid in water was forced down the esophagus using a plastic syringe over 9 days.

[17] = safety study on rabbit; assay type: in vivo; conditions: intraperitoneal, 9 days, up to 133.3 mg/kg
[18] = safety study on human volunteers; assay type: in vivo; conditions: 7 volunteers, oral; person 1: 200 mg stat and 200 mg tds x 2/52; person 3: 800 mg stat
Description: Safety Study on Human Volunteers
Dose & Frequency of 3- Total 3-amino-4-
amino-4-hydroxybenzoic hydroxybenzoic acid
Person acid Intake mg/kg
Each person took 3-amino-4-hydroxybenzoic acid orally.

[19] = adverse effects in HIV/AIDS patients; assay type: in vivo, human
Description: Our experience in using 3-amino-4-hydroxybenzoic acid to treat HIV/AIDS has shown only one non-uniform adverse effect. […] In the case of 3-amino-4-hydroxybenzoic acid, this occasional side effect can be averted by feeding before administration, giving a flavouring agent before administration or preparing the medicament in capsule form. The nausea is temporary. The medicament is preferably taken for approximately 28 days.

[20] = test system: HIV; assay type: in vivo
Method: Clinical observations on HIV/AIDS Patients Treated with 3-amino-4-hydroxybenzoic acid
Treatment was administered orally to each patient taking 200 mg of 3-amino-4-hydroxybenzoic acid tds for 14 days.

[21] = test system: HIV; test: T-cell observations after HIV/AIDS treatment (Example 4); assay type: in vivo
Method: Symptomatic and asymptomatic seropositive individuals were treated with 3-amino-4-hydroxybenzoic acid (200 mg tds orally) for two weeks. CD4 :CD8 ratios were taken before and three months after treatment. […] Based on its inherent ability to inactivate HIV in vitro it is probable that 3-amino-4-hydroxybenzoic acid suppresses or inactivates the HIV in affected individuals.
The individuals were taken randomly as they became available (3 male and 4 female). Their T-cell counts were taken before treatment and three months after treatment. They were given 3-amino-4-hydroxybenzoic acid as 200 mg tds orally and followed on daily basis as they took 3-amino-4-hydroxybenzoic acid for two weeks. Thereafter they were followed weekly for the first month after finishing the course of medicine and then monthly.

[22] = test system: HIV; test: T-cell counts of patients JE001-JE0015, once daily dosing (Example 5); assay type: in vivo
Method: These were made on patients JE001-JE0015 who received 200 mg of 3-amino-4-hydroxybenzoic acid orally only once per day for two weeks and whose T-cell counts were analysed after only 6 weeks.
Continuous study of viral load by quantitative PCR when available will show the optimum dose and duration of administration of 3-amino-4-hydroxybenzoic acid.
An explanation is that the CD4 cells which carry HIV die after 3-amino-4-hydroxybenzoic acid kills the virus in them. Later as the precursor cells form other CD4 s without HIV to destroy them, the total CD4 count will be found even higher than before treatment.

[23] = test system: HIV; test: trial based on clinical and haematological findings (Example 5); assay type: in vivo
Description: In addition, trial based on clinical and haematological findings have shown the following observations.

[24] = test system: HIV; test: electron microscopy of patient blood (Example 6); assay type: in vivo; conditions: two patients, before treatment and 28 days after
Description: (§2) Blood samples were taken for electron microscopy and HIV culture before and after treatment of two patients.

[25] = test system: HIV; test: HIV culture from patient blood (Example 6); assay type: in vivo
Description: as §2

[26] = water solubility; assay type: physicochemical
[27] = test system: hyaluronidase; conditions: acrosomal proteolytic enzyme of sperm; cited from earlier work
[28] = test system: HIV; assay type: in vivo; remark: listed apart in the source
[29] = 200 mg tds oral, 14 days, patient three (1)
[30] = 200 mg tds orally, two weeks, before vs three months after treatment
[31] = per patient, 200 mg tds orally, two weeks, three months after treatment
[32] = patient three (8), in 6 months of treatment

## Cc1cn([C@H]2C[C@H](N=[N+]=[N-])[C@@H](CO)O2)c(=O)[nH]c1=O [AZT]
[1]
  bone marrow depression and anaemia: causes bone marrow depression and anaemia in presence of normal serum iron
[2]
  reported equivalent increase in CD4: 81

## Nc1cc(C(=O)O)ccc1O [3-amino-4-hydroxybenzoic acid]
[3]; Human immunodeficiency virus 1, HIV cultivated in human lymphocytes, read-out: minimum inhibitory concentration / minimum concentration inactivating cultivated HIV
  MIC: 0.5 µg/mL (≈ 3.27 µM)
[3]; in vitro, cultivated HIV
  inactivation of cultivated HIV: completely inactivate cultivated HIV
[4]
  adverse effect to the lymphocytes: without any adverse effect to the lymphocytes
[5]
  Therapeutic Index: 40,000
  selectivity ratio: 40000
[6]
  antimicrobial activity: established
[7]
  antimicrobial activity: established
[8]
  antimicrobial activity: established
[9]
  antimicrobial activity: established
[10]
  antimicrobial activity: established
[11]
  antimicrobial activity: established
[12]
  antimicrobial activity: established
[13]
  infectivity of HIV after dipping: renders the virus uninfective
[14]
  bacteriostatic effect: bacteriostatic
  time to cessation of gonorrhoeal discharge: 12 h
[15]
  absorption from the gut / excretion: sufficiently absorbed from the gut; also recorded: well absorbed and excreted
[16]
  adverse effects: no adverse effects observed
[17]
  adverse effects: no adverse effects observed
[18]
  persons experiencing nausea: Only persons 1 and 3 experienced nausea without vomiting
[19]; HIV/AIDS patients
  adverse effect: nausea and vomiting in the very weak
[19]; chicken, rabbit, sheep and human volunteers
  side effects noted: Only tolerable nausea and occasional vomiting
[20]; [29]
  body weight after treatment: 48 kg
  haemoglobin after treatment: 16%
  lymphocytes (relative) after treatment: 49%
[20]; 200 mg tds oral, 14 days, patient three (1), baseline
  body weight before treatment: 44 kg
[20]; about 20 patients
  clinical, haematological and weight gain assessment: found to improve
[20]; average patient, within the first month
  average weight gain: 5 kg
[20]; patient five (3), after 2 weeks
  signs and symptoms: the signs and symptoms were over
[20]; patient four (9)
  standing and walking unaided: By the third day they could stand and walk unaided
  time until diarrhoea ceased: 24 h
  vomiting and diarrhoea: over by the third day
[20]; patient four (9), 22.1.95 and May 19th 1995
  health at follow-up: in perfect health on 22.1.95
[20]; patient four (9), all along the time of treatment
  serum iron: normal
[20]; patient four (9), by end of second week
  wounds healed, signs and symptoms over: wounds had healed and all their signs and symptoms were over
[20]; patient four (9), by the sixth month
  haemoglobin rise: 1 g %
[20]; patient four (9), in six months
  weight gain: 1 kg
[20]; patient four (9), sixth month
  haemoglobin after treatment: 11.9%
[20]; patient one (2)
  oral ulcers, genital wounds and lymph node enlargement: over by the second week of treatment
  time until able to go to the toilet and bathroom unaided: ≤ 5 days
[20]; patient one (2), baseline
  body weight before treatment: 41 kg
[20]; patient one (2), in 3 weeks
  weight gain: 2.5 kg
[20]; patient six (6), in 2 weeks of treatment
  rashes and pigmentation: The rashes subsided and the pigmentation returned to normal skin colour
[20]; patient three (1)
  time until signs and symptoms were over: six
[20]; patient three (1), baseline
  haemoglobin before treatment: 11.69%
  lymphocytes (relative) before treatment: 39%
[20]; patient three (8), baseline
  body weight before treatment: 44 kg
  haemoglobin before treatment: 12.1%
[20]; patient two (7), in 5 days of treatment
  functional recovery (house work, shopping): able to do their house work, go for salary from their place of work and even go to the market for shopping
[21]; 200 mg tds orally, two weeks
  immunological improvement: there is immunological improvement
[21]; 200 mg tds orally, two weeks, 7 patients
  mean increase in CD4: 208
[21]; [30]
  CD4:CD8 ratio change: rose
  CD8 change: decreased to varying levels in all of the individuals
[21]; 200 mg tds orally, two weeks, three months after treatment, per patient
  Increase in CD4 after treatment: 531 CD4/mm^3 and 72 CD4/mm^3 and 160 CD4/mm^3 and 40 CD4/mm^3 and 184 CD4/mm^3 and 102 CD4/mm^3 and 465 CD4/mm^3
[21]; per patient, baseline
  CD4/CD8 Ratio Before Treatment: 0.845 and 0.00 and 0.7 and 0.3 and 0.29 and 0.9
  CD4 Count Before Treatment: 561 CD4/mm3 and 50 CD4/mm3 and 650 CD4/mm3 and 460 CD4/mm3 and 300 CD4/mm3 and 1122 CD4/mm3 and 1014 CD4/mm3
[21]; [31]
  CD4/CD8 Ratio After Treatment: 1.632 and 0.06 and 2.2 and 0.2 and 0.564 and 0.78 and 1.11
  CD4 Count After Treatment: 1092 CD4/mm3 and 112 CD4/mm3 and 810 CD4/mm3 and 500 CD4/mm3 and 484 CD4/mm3 and 1326 CD4/mm3 and 1479 CD4/mm3
[22]; 200 mg orally once per day, two weeks, analysed after 6 weeks, vs patient JC004 (200 mg tds)
  T-cell results: The results were poor
[22]; earlier than three months
  CD4 count when counted earlier than three months: low figures even lower than before the start of treatment
[23]; human, in vivo
  time until anorexia subsides: ≤ 5 days
  time until bed ridden patients can stand and do light work: ≤ 2 weeks
  time until diarrhoea stops: 1-3
  time until fever and weakness subside: ≤ 1 week
  time until haemoglobin normalizes: ≤ 1 month
  time until poor vision normalizes: ≤ 1 week
  time until rashes and hyper pigmentation of scars subside: ≤ 5 days
  time until sleep normalizes in intensity and rhythm: ≤ 2 days
  time until vomiting ceases: ≤ 2 days
[23]; human, in vivo, po
  time until oral and anogenital ulcers heal: ≤ 1 week
[23]; within the first month of treatment
  average weight gain: 5 kg
[24]
  HIV particles by electron microscopy: HIV particles before treatment but not 28 days after treatment
[25]; 3 mg/kg tds, 28 days
  eradication of HIV from patients' blood: eradicates HIV from the patients blood
[25]; two patients, before treatment and after 28 days of treatment
  HIV culture growth: grew HIV but not after 28 days of treatment
[26]
  solubility in water: not readily soluble in water
[27]
  inactivation of hyaluronidase: inactivates an achrosomal proteolytic enzyme hyaluronidase
[28]; patient four (9), by 6 weeks of treatment
  hair: their thin silk hair had reverted to the normal Afro type
[28]; [32]
  body weight after treatment: 53 kg
  haemoglobin after treatment: 14.9%
